Measured values taken from PubChem BioAssay (NCI).
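Cultured in 96-well plates, cells were exposed to test compound for 48 hours across five concentrations. GI50 marks 50% less growth. TGI is the concentration that stops growth completely.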

Test system: MDA-MB-231 breast
Experiment: inhibition of tumour cell growth, NCI panel, 48 h

| Compound | GI50 | TGI |
| --- | --- | --- |
| COc1cc2c3c(n(CCCN(C)CCO)c(=O)c2cc1OC)-c1cc2c(cc1C3=O)OCO2 | 14 µM | 49.9 µM |
| CNC(C)[C@H]1CCC2C3CC=C4C(=O)[C@@H](NC(=O)C=C(C)C)CC[C@]4(C)C3CC[C@@]21C (some centres undefined) | 1.89 µM | 4.74 µM |
| Clc1nc(Cl)c2ncn(Cc3ccccc3Cn3cnc4c(Cl)nc(Cl)nc43)c2n1 | 1.55 µM | 3.01 µM |
| O=C(Nc1ccc(Cl)cc1)Nc1nccs1 | 3.18 µM | 41.5 µM |
| CS(=O)(=O)CS(=O)(=O)OCCCl | – | 918 µM |
| CC(C)(C)c1cc(C(=O)/C=C/c2ccc(C(=O)O)cc2)cc(C(C)(C)C)c1 | – | 13 µM |
| COc1ccc(-c2ccc(NNC(=O)c3ccc(F)cc3)nn2)cc1OC | 93 µM | > 100 µM |
| Cc1noc2c1-c1ccccc1C(c1ccc(Cl)cc1)=N[C@H]2CC(N)=O | 7.56 µM | > 100 µM |
| O=C(N/N=C/c1ccc(O)cc1O)c1cccnc1 | 3.68 µM | > 100 µM |
| Cc1sc2c(c1C)C(c1ccc(Cl)cc1)=N[C@@H](CC(=O)Nc1ccc(OCCOCCOCCOCCNc3cccc4c3C(=O)N(C3CCC(=O)NC3=O)C4=O)cc1)c1nnc(C)n1-2 (some centres undefined) | < 0.0175 µM | > 83.8 µM |
| NCCCOc1cc2ccccc2cc1C(=O)NCCCOc1cc2ccccc2cc1C(=O)Nc1ccc(Cl)cc1O | 0.629 µM | 1.82 µM |
| CCOC(=O)C1=C(N)Oc2c(sc3c(C)cccc23)C1c1ccc(F)cc1 (centres undefined) | 2.37 µM | 16 µM |
| NC(N)=N/N=C(\N=Nc1ccccc1)c1ccc(Cl)cc1 | 1.9 µM | 12.7 µM |
| c1ccc2c(c1)c1ccccc1c1ccccc21 | 87.2 µM | > 100 µM |
| Cc1c2c(C(N)=O)nccc2c(C)c2c1c1ccccc1n2Cc1ccccc1 | – | 28 µM |

Test system: NCI-H522 lung
Experiment: inhibition of tumour cell growth, NCI panel, 48 h

| Compound | TGI | GI50 |
| --- | --- | --- |
| O=[N+]([O-])c1ccc(Sc2c3ccccc3nc3ccccc23)cn1 | 10.8 µM | – |
| COc1cc2c3c(n(CCCN(C)CCO)c(=O)c2cc1OC)-c1cc2c(cc1C3=O)OCO2 | > 46 µM | 2.16 µM |
| CNC(C)[C@H]1CCC2C3CC=C4C(=O)[C@@H](NC(=O)C=C(C)C)CC[C@]4(C)C3CC[C@@]21C (some centres undefined) | 7.55 µM | 2.27 µM |
| Clc1nc(Cl)c2ncn(Cc3ccccc3Cn3cnc4c(Cl)nc(Cl)nc43)c2n1 | 13.7 µM | 4.28 µM |
| O=C(Nc1ccc(Cl)cc1)Nc1nccs1 | 14.4 µM | 1.92 µM |
| CS(=O)(=O)CS(=O)(=O)OCCCl | 723 µM | – |
| CC(C)(C)c1cc(C(=O)/C=C/c2ccc(C(=O)O)cc2)cc(C(C)(C)C)c1 | 15.4 µM | – |
| COc1ccc(-c2ccc(NNC(=O)c3ccc(F)cc3)nn2)cc1OC | > 100 µM | 54.3 µM |
| Cc1noc2c1-c1ccccc1C(c1ccc(Cl)cc1)=N[C@H]2CC(N)=O | > 100 µM | 8.2 µM |
| O=C(N/N=C/c1ccc(O)cc1O)c1cccnc1 | > 100 µM | 3.21 µM |
| Cc1sc2c(c1C)C(c1ccc(Cl)cc1)=N[C@@H](CC(=O)Nc1ccc(OCCOCCOCCOCCNc3cccc4c3C(=O)N(C3CCC(=O)NC3=O)C4=O)cc1)c1nnc(C)n1-2 (some centres undefined) | > 100 µM | 0.518 µM |
| NCCCOc1cc2ccccc2cc1C(=O)NCCCOc1cc2ccccc2cc1C(=O)Nc1ccc(Cl)cc1O | 2.89 µM | 0.929 µM |
| CCOC(=O)C1=C(N)Oc2c(sc3c(C)cccc23)C1c1ccc(F)cc1 (centres undefined) | 3.29 µM | 0.35 µM |
| NC(N)=N/N=C(\N=Nc1ccccc1)c1ccc(Cl)cc1 | 13.8 µM | 3.35 µM |
| c1ccc2c(c1)c1ccccc1c1ccccc21 | > 100 µM | > 100 µM |
| Cc1c2c(C(N)=O)nccc2c(C)c2c1c1ccccc1n2Cc1ccccc1 | 54.6 µM | – |

Test system: OVCAR-3 ovarian
Experiment: inhibition of tumour cell growth, NCI panel, 48 h

| Compound | TGI | GI50 |
| --- | --- | --- |
| O=[N+]([O-])c1ccc(Sc2c3ccccc3nc3ccccc23)cn1 | 20.3 µM | – |
| COc1cc2c3c(n(CCCN(C)CCO)c(=O)c2cc1OC)-c1cc2c(cc1C3=O)OCO2 | > 100 µM | 35.9 µM |
| CNC(C)[C@H]1CCC2C3CC=C4C(=O)[C@@H](NC(=O)C=C(C)C)CC[C@]4(C)C3CC[C@@]21C (some centres undefined) | 6.04 µM | 1.82 µM |
| Clc1nc(Cl)c2ncn(Cc3ccccc3Cn3cnc4c(Cl)nc(Cl)nc43)c2n1 | 2.85 µM | 1.47 µM |
| O=C(Nc1ccc(Cl)cc1)Nc1nccs1 | 7.85 µM | 1.95 µM |
| CS(=O)(=O)CS(=O)(=O)OCCCl | 983 µM | – |
| CC(C)(C)c1cc(C(=O)/C=C/c2ccc(C(=O)O)cc2)cc(C(C)(C)C)c1 | 7.31 µM | – |
| COc1ccc(-c2ccc(NNC(=O)c3ccc(F)cc3)nn2)cc1OC | > 100 µM | 79.7 µM |
| Cc1noc2c1-c1ccccc1C(c1ccc(Cl)cc1)=N[C@H]2CC(N)=O | > 100 µM | 3.75 µM |
| O=C(N/N=C/c1ccc(O)cc1O)c1cccnc1 | 29.4 µM | 0.474 µM |
| Cc1sc2c(c1C)C(c1ccc(Cl)cc1)=N[C@@H](CC(=O)Nc1ccc(OCCOCCOCCOCCNc3cccc4c3C(=O)N(C3CCC(=O)NC3=O)C4=O)cc1)c1nnc(C)n1-2 (some centres undefined) | > 100 µM | 0.551 µM |
| NCCCOc1cc2ccccc2cc1C(=O)NCCCOc1cc2ccccc2cc1C(=O)Nc1ccc(Cl)cc1O | 3.49 µM | 1.81 µM |
| CCOC(=O)C1=C(N)Oc2c(sc3c(C)cccc23)C1c1ccc(F)cc1 (centres undefined) | 13.1 µM | 0.403 µM |
| NC(N)=N/N=C(\N=Nc1ccccc1)c1ccc(Cl)cc1 | 7.24 µM | 2.8 µM |
| c1ccc2c(c1)c1ccccc1c1ccccc21 | > 100 µM | > 100 µM |
| Cc1c2c(C(N)=O)nccc2c(C)c2c1c1ccccc1n2Cc1ccccc1 | 21.1 µM | – |

Test system: RXF 393 renal
Experiment: inhibition of tumour cell growth, NCI panel, 48 h

| Compound | TGI | GI50 |
| --- | --- | --- |
| O=[N+]([O-])c1ccc(Sc2c3ccccc3nc3ccccc23)cn1 | 60.3 µM | – |
| COc1cc2c3c(n(CCCN(C)CCO)c(=O)c2cc1OC)-c1cc2c(cc1C3=O)OCO2 | > 73.2 µM | 27.4 µM |
| CNC(C)[C@H]1CCC2C3CC=C4C(=O)[C@@H](NC(=O)C=C(C)C)CC[C@]4(C)C3CC[C@@]21C (some centres undefined) | 3.22 µM | 1.45 µM |
| Clc1nc(Cl)c2ncn(Cc3ccccc3Cn3cnc4c(Cl)nc(Cl)nc43)c2n1 | 3.29 µM | 1.36 µM |
| O=C(Nc1ccc(Cl)cc1)Nc1nccs1 | 6.53 µM | 1.49 µM |
| CS(=O)(=O)CS(=O)(=O)OCCCl | 611 µM | – |
| CC(C)(C)c1cc(C(=O)/C=C/c2ccc(C(=O)O)cc2)cc(C(C)(C)C)c1 | 4.34 µM | – |
| COc1ccc(-c2ccc(NNC(=O)c3ccc(F)cc3)nn2)cc1OC | > 100 µM | 63 µM |
| Cc1noc2c1-c1ccccc1C(c1ccc(Cl)cc1)=N[C@H]2CC(N)=O | 72.7 µM | 13 µM |
| O=C(N/N=C/c1ccc(O)cc1O)c1cccnc1 | > 100 µM | 3.74 µM |
| Cc1sc2c(c1C)C(c1ccc(Cl)cc1)=N[C@@H](CC(=O)Nc1ccc(OCCOCCOCCOCCNc3cccc4c3C(=O)N(C3CCC(=O)NC3=O)C4=O)cc1)c1nnc(C)n1-2 (some centres undefined) | 48.5 µM | 0.803 µM |
| NCCCOc1cc2ccccc2cc1C(=O)NCCCOc1cc2ccccc2cc1C(=O)Nc1ccc(Cl)cc1O | 0.928 µM | 0.24 µM |
| CCOC(=O)C1=C(N)Oc2c(sc3c(C)cccc23)C1c1ccc(F)cc1 (centres undefined) | 0.639 µM | 0.242 µM |
| NC(N)=N/N=C(\N=Nc1ccccc1)c1ccc(Cl)cc1 | 9.33 µM | 2.69 µM |
| c1ccc2c(c1)c1ccccc1c1ccccc21 | > 100 µM | > 100 µM |
| Cc1c2c(C(N)=O)nccc2c(C)c2c1c1ccccc1n2Cc1ccccc1 | 31.9 µM | – |

Test system: SK-MEL-28 melanoma
Experiment: inhibition of tumour cell growth, NCI panel, 48 h

| Compound | TGI | GI50 |
| --- | --- | --- |
| O=[N+]([O-])c1ccc(Sc2c3ccccc3nc3ccccc23)cn1 | 58.4 µM | – |
| COc1cc2c3c(n(CCCN(C)CCO)c(=O)c2cc1OC)-c1cc2c(cc1C3=O)OCO2 | > 100 µM | > 80.2 µM |
| CNC(C)[C@H]1CCC2C3CC=C4C(=O)[C@@H](NC(=O)C=C(C)C)CC[C@]4(C)C3CC[C@@]21C (some centres undefined) | 3.3 µM | 1.69 µM |
| Clc1nc(Cl)c2ncn(Cc3ccccc3Cn3cnc4c(Cl)nc(Cl)nc43)c2n1 | 11.8 µM | 2.96 µM |
| O=C(Nc1ccc(Cl)cc1)Nc1nccs1 | > 100 µM | 13.8 µM |
| CS(=O)(=O)CS(=O)(=O)OCCCl | 1510 µM | – |
| CC(C)(C)c1cc(C(=O)/C=C/c2ccc(C(=O)O)cc2)cc(C(C)(C)C)c1 | 6.83 µM | – |
| COc1ccc(-c2ccc(NNC(=O)c3ccc(F)cc3)nn2)cc1OC | > 100 µM | > 100 µM |
| Cc1noc2c1-c1ccccc1C(c1ccc(Cl)cc1)=N[C@H]2CC(N)=O | > 100 µM | 7.38 µM |
| O=C(N/N=C/c1ccc(O)cc1O)c1cccnc1 | 62.6 µM | 3.59 µM |
| Cc1sc2c(c1C)C(c1ccc(Cl)cc1)=N[C@@H](CC(=O)Nc1ccc(OCCOCCOCCOCCNc3cccc4c3C(=O)N(C3CCC(=O)NC3=O)C4=O)cc1)c1nnc(C)n1-2 (some centres undefined) | > 100 µM | 16.8 µM |
| NCCCOc1cc2ccccc2cc1C(=O)NCCCOc1cc2ccccc2cc1C(=O)Nc1ccc(Cl)cc1O | 0.728 µM | 0.289 µM |
| CCOC(=O)C1=C(N)Oc2c(sc3c(C)cccc23)C1c1ccc(F)cc1 (centres undefined) | 22.1 µM | 8.71 µM |
| NC(N)=N/N=C(\N=Nc1ccccc1)c1ccc(Cl)cc1 | 4.59 µM | 1.98 µM |
| c1ccc2c(c1)c1ccccc1c1ccccc21 | > 100 µM | > 100 µM |
| Cc1c2c(C(N)=O)nccc2c(C)c2c1c1ccccc1n2Cc1ccccc1 | > 100 µM | – |
